# From US20200281897A1, “INDAZOLE DERIVATIVES FOR CANCER TREATMENT” (Servicio Andaluz de Salud, priority 2016, published 2020)
# Tests used:
# U266 [1] = assay: MTT cell viability assay, myeloma cell line U266; format: cell-based, human; conditions: U266, MTT, 18 hours, doses 0-50 μM; read-out: IC50, cell viability
# Experimental: In vitro studies were carried out using six different human MM cell lines, U266, RPMI8226, MM1S, MM1R, U266-LR7, and RPMI-LR5. For ex vivo assays, human primary cells from healthy donors and MM patients were used (Table 1). Human MM cell lines U266, RPMI8226, and MM1.S were acquired from ATCC and lines U266-LR7, RPMI-LR5, and MM1.R were kindly provided by Dr. Enrique Ocio (Hospital Universitario de Salamanca, Spain). The primary cells were obtained from bone marrow (BM) aspirates or peripheral blood (PB) samples, and the peripheral blood mononuclear cells (PBMCs) were isolated by Ficoll-Hypaque centrifugation and washed twice in phosphate buffered saline (PBS) containing 1% BSA. Hematopoietic stem cells and B and T lymphocytes were isolated from healthy PB donors by positive immunomagnetic separation using human MACS CD34+, CD19+, and CD3+ microbeads, respectively. MM plasma cells were obtained from the bone marrow (BM) of patients with an infiltration of cells of more than 30% (Table 1). The MM plasma cells were identified using CD138+, and were then distinguished from the other cell populations by flow cytometry using a suitable combination of antibodies: anti-human CD64-FITC, CD34-PE, CD56-APC, CD38-APC-H7, and CD45-Pacific Blue antibodies (BD Biosciences, San Jose, Calif.). All the cell lines were cultured in RPMI-1640 supplemented with 10% fetal bovine serum (FBS) and 1% penicillin/streptomycin, as recommended by the supplier. For human primary cells, the concentration of FBS was up to 20%.
# The MM cell lines and primary cells were exposed to different doses of indazole compounds, and viability was evaluated at 18, 48, and 72 hours. Pretreatments with the ceramide synthesis inhibitor (FB1), pan-caspase (ZVAD-FMK), and CB antagonists (PGN-8, PGN-37, and PGN-70) were performed for 30 minutes, and then the cells were incubated with indazole compound WIN-55 up to 18 hours. Cell viability was determined using the MTT assay Cell Counting Kit-8 (Dojindo, Kumamoto, Japan) according to the manufacturer's instructions.
# [2] = test system: myeloma plasma cells (MPCs, CD38+); assay: Ex vivo viability of myeloma plasma cells of MM patients by flow cytometry; format: cell-based, human; conditions: 18 hours, six MM patients
# Experimental: (§1) In vitro studies were carried out using six different human MM cell lines, U266, RPMI8226, MM1S, MM1R, U266-LR7, and RPMI-LR5. For ex vivo assays, human primary cells from healthy donors and MM patients were used (Table 1). Human MM cell lines U266, RPMI8226, and MM1.S were acquired from ATCC and lines U266-LR7, RPMI-LR5, and MM1.R were kindly provided by Dr. Enrique Ocio (Hospital Universitario de Salamanca, Spain). The primary cells were obtained from bone marrow (BM) aspirates or peripheral blood (PB) samples, and the peripheral blood mononuclear cells (PBMCs) were isolated by Ficoll-Hypaque centrifugation and washed twice in phosphate buffered saline (PBS) containing 1% BSA. […]
# (§2) The cell viability of the MM cell lines and primary cells from healthy PB donors was also evaluated by flow cytometry using 7-AAD/Annexin V. Patient bone marrow (BM) cells were analyzed using 7-AAD with a combination of monoclonal antibodies against myeloma-associated antigens (anti-CD56-APC, anti-CD45-Pacific Blue, and anti-CD38-APC-H7 [BD Biosciences]) and antibodies for distinguishing the granulomonocytic population (anti-CD64-FITC) and lymphocytic population (anti-CD45-Pacific Blue). The cells were acquired by means of FACSCanto II flow cytometer (BD Biosciences) and analyzed using Infinicyt™ Software (Cytognos, Spain).
# [3] = test system: granulomonocytes (CD64+) and lymphocytes (CD45+); assay: Ex vivo viability of normal cell subpopulations of patient bone marrow by flow cytometry; format: cell-based, human
# Experimental: as §1, §2
# [4] = test system: hematopoietic stem cells (CD34+); assay: Viability of hematopoietic stem cells from healthy donors (MTT); format: cell-based, human; conditions: 0-50 μM, 18 hours
# Experimental: as §1, with “BSA. Hematopoietic stem cells and B and T lymphocytes were isolated from healthy PB donors by positive immunomagnetic separation using human MACS CD34+, CD19+, and CD3+ microbeads, respectively. MM plasma cells were obtained from the bone marrow (BM) of patients with an infiltration of cells of more than 30% (Table 1).” for “BSA.”
# The MM cell lines and primary cells were exposed to different doses of indazole compounds, and viability was evaluated at 18, 48, and 72 hours. […] Cell viability was determined using the MTT assay Cell Counting Kit-8 (Dojindo, Kumamoto, Japan) according to the manufacturer's instructions.
# U266 [5] = assay: Mitochondrial transmembrane potential analysis (TMRE); format: cell-based, human; conditions: U266, 50 μM, from 15 minutes
# Experimental: Cell lines U266 were exposed to 50 μM of WIN-55 for 15, 30, 45, and 60 minutes. The loss of mitochondrial membrane potential (Aym) was calculated using TRME (tetramethylrhodamine-ethyl-ester-perchlorate) according to the manufacturer's instructions and CCCP (2-[2-(3-chlorophenyl)hydrazinylidene] propanedinitrile) was used as a control to induce the loss of Aym.
# U266 cells = assay: MM xenograft in NGS mice; format: in vivo
# Experimental: The “NOD/scid/IL-2R gammae null” (NGS) mice were acquired from Charles River (France). The tumor xenografts were induced by the subcutaneous injection of 5×10^6 U266 cells mixed with 100 μl of Matrigel (BD Biosciences) in 8-week old mice. When the tumors became palpable (>0.5 cm), the mice were randomly assigned in the following groups (10 mice per group), which received i.p.: 1) 5 mg/kg WIN-55 every 24 hours, 2) 5 mg/kg WIN-55 every 48 hours, and 3) a vehicle. Two groups were left tumor-free and served as a negative control, receiving treatment every 24 or 48 hours, respectively. The tumor growth was evaluated daily by measuring the two bisecting diameters of the tumor with a digital Vernier gauge or caliper. The volume was calculated using the following formula: volume=length×(width) e2×0.4 mm^3. The animals were sacrificed when the length or width of the tumor reached 2 cm.
# NB-4 = assay: WST-1 cell viability assay, NB-4; format: cell-based, human; conditions: NB-4, 18 hours
# Experimental: U937, NB-4, KG-1, and MOLM-13 (DMSZ, Braunschweig, Germany) were cultured in complete RPMI 1640 medium (with 2 mM of L-glutamine, 100 mg of penicillin, 100 μg/ml of streptomycin, and with 10% FBS), supplemented with 10 mM HEPES, 1×NaPuvuvato, and 1× non-essential amino acids.
# The cell lines and primary cells were cultured in 96-well plates (5×10e5 cells per well) with the addition of the indicated concentrations of WIN 55,212-2 or PGN cannabinoids in DMSO or with the solvent only in triplicate at 18, 48, and 72 hours. Caspase inhibitor Z-VAD (OMe)-FMK or the CB2 receptor antagonist PGN-8, -37, and -70, together with the cannabinoid WIN-55,212-2, were also added. Cell viability was determined by means of the WST-1 assay [2-(4-iodophenyl)-3-(4-nitrophenyl)-5-(2,4-disulfophenyl)-2H-tetrazolium] according to the manufacturer's instructions (Dojindo Molecular Technologies). Optical densities were measured at 450 nm using a Multiskan™ Go Microplate plate reader (Thermo Fisher Scientific, Waltham, Mass., USA).
# Now it will be analyzed whether the exposure to cannabinoids had any effect on the viability of the tumor cells in vitro. […]
compound,measurement,setting,value
"CS(=O)(=O)O.Cc1c(C(=O)c2cccc3ccccc23)c2cccc3c2n1[C@H](CN1CCOCC1)CO3 [WIN-55, (R)-(+)-[2,3-dihydro-5-methyl-3-(4-morpholinomethyl)-pyrrolo[1,2,3]-1,4-benzoxazin-6-yl]-1-naphthalenylmethanone mesylate]",IC50,U266 [1],17.2 µM
same,decrease in cell viability of MPCs (CD38+),[2]; 20 μM,70%
same,decrease in cell viability of MPCs (CD38+),[2]; 50 μM,85%
same,cell viability of normal cell subpopulations from patient bone marrow,"[3]; granulomonocytes (CD64+) and lymphocytes (CD45+), 0-50 μM, 18 hours",barely affected
same,effect on the lymphocyte population (CD45+),"[3]; highest dose tested, 50 μM",induced an antiproliferative effect
same,hematopoietic stem cell viability,[4],not affected
same,mitochondrial membrane potential,U266 [5],early loss of mitochondrial membrane potential
same,tumor growth (tumor volume),"U266 cells; 5 mg/kg i.p. every 24 or 48 hours, NGS mice, U266 xenograft",considerably inhibits tumor growth
same,first day on which tumor volume differences were statistically significant,U266 cells; 5 mg/kg i.p. every 24 hours,13 days
same,first day on which tumor volume differences were statistically significant,U266 cells; 5 mg/kg i.p. every 48 hours,16 days
same,% viable cells at 50 μM,NB-4,49.1%
same,IC50,NB-4,25.1 µM
